The record followed here is patent US7524869B2, “Taxanes having a C10 ester substituent” (Florida State University Research Foundation, Inc., priority 2000, dated 2009).

For the assay, the system named is HCT116. The experiment in a line: In vitro cytotoxicity measured by the cell colony formation assay. It counts as cell-based. Particulars: HCT116 cells, 72 h drug incubation, colonies counted after 7 days; ID50 = drug concentration producing 50% inhibition of colony formation; read-out: IN VITRO ID 50 (nm) HCT116.

Consider `CCOC(=O)N[C@@H](c1cccs1)[C@@H](O)C(=O)O[C@H]1C[C@@]2(O)[C@@H](OC(=O)c3ccccc3)C3[C@](C)(C(=O)[C@H](OC(=O)C4CC4)C(=C1C)C2(C)C)[C@@H](O)C[C@H]1OC[C@@]31OC(C)=O` (stereo partly shown) [Compound 4051], for which the IC50 was less than 1 nM.

For `CC(=O)O[C@@]12CO[C@@H]1C[C@H](O)[C@@]1(C)C(=O)[C@H](OC(=O)C3CC3)C3=C(C)[C@@H](OC(=O)[C@H](O)[C@@H](NC(=O)OC(C)(C)C)c4cccs4)C[C@@](O)([C@@H](OC(=O)c4ccccc4)C12)C3(C)C` (stereo partly shown) [Compound 0854], the IC50 was less than 1 nM.

With `CC(=O)O[C@@]12CO[C@@H]1C[C@H](O)[C@@]1(C)C(=O)[C@H](OC(=O)C(C)C)C3=C(C)[C@@H](OC(=O)[C@H](O)[C@@H](NC(=O)OC(C)(C)C)c4ccncc4)C[C@@](O)([C@@H](OC(=O)c4ccccc4)C12)C3(C)C` (stereo partly shown) [Compound 2255], the IC50 is less than 1 nM.

In the case of `C/C=C/C(=O)O[C@H]1C(=O)[C@@]2(C)C([C@H](OC(=O)c3ccccc3)[C@]3(O)C[C@H](OC(=O)[C@H](O)[C@H](C=C(C)C)NC(=O)OC(C)(C)C)C(C)=C1C3(C)C)[C@]1(OC(C)=O)CO[C@@H]1C[C@@H]2O` (stereo partly shown) [Compound 2332], the IC50 is less than 1 nM.

For `CCCC(=O)O[C@H]1C(=O)[C@@]2(C)C([C@H](OC(=O)c3ccccc3)[C@]3(O)C[C@H](OC(=O)[C@H](O)[C@@H](NC(=O)c4ccccc4)c4cccs4)C(C)=C1C3(C)C)[C@]1(OC(C)=O)CO[C@@H]1C[C@@H]2O` (stereo partly shown) [Compound 3258], the IC50 is less than 1 nM.

`CC(=O)O[C@@]12CO[C@@H]1C[C@H](O)[C@@]1(C)C(=O)[C@H](OC(=O)C3CC3)C3=C(C)[C@@H](OC(=O)[C@H](O)[C@@H](NC(=O)OCC(C)C)C4CC4)C[C@@](O)([C@@H](OC(=O)c4ccccc4)C12)C3(C)C` (stereo partly shown) [Compound 5232]: the IC50 is less than 10 nM.

`CC(=O)O[C@@]12CO[C@@H]1C[C@H](O)[C@@]1(C)C(=O)[C@H](OC(=O)C=C(C)C)C3=C(C)[C@@H](OC(=O)[C@H](O)[C@@H](NC(=O)OC(C)(C)C)c4ccccn4)C[C@@](O)([C@@H](OC(=O)c4ccccc4)C12)C3(C)C` (stereo partly shown) [Compound 2464]: the IC50 was less than 1 nM.

Regarding `CCCC(=O)O[C@H]1C(=O)[C@@]2(C)C([C@H](OC(=O)c3ccccc3)[C@]3(O)C[C@H](OC(=O)[C@H](O)[C@@H](NC(=O)OC(C)C)c4ccco4)C(C)=C1C3(C)C)[C@]1(OC(C)=O)CO[C@@H]1C[C@@H]2O` (stereo partly shown) [Compound 3417], the IC50 was less than 1 nM.

As to `CC(=O)OC12COC1CC(O)C1(C)C(=O)C(OC(=O)c3cccs3)C3=C(C)C(OC(=O)C(O)C(NC(=O)OC(C)(C)C)c4ccco4)CC(O)(C(OC(=O)c4ccccc4)C21)C3(C)C` (stereo not shown) [Compound 1892], the IC50 was less than 1 nM.

As for `CCC(=O)O[C@H]1C(=O)[C@@]2(C)C([C@H](OC(=O)c3ccccc3)[C@]3(O)C[C@H](OC(=O)[C@H](O)[C@@H](NC(=O)c4ccccc4)c4ccc([N+](=O)[O-])cc4)C(C)=C1C3(C)C)[C@]1(OC(C)=O)CO[C@@H]1C[C@@H]2O` (stereo partly shown) [Compound 0732], the IC50 is less than 10 nM.

On to `CC(=O)O[C@@]12CO[C@@H]1C[C@H](O)[C@@]1(C)C(=O)[C@H](OC(=O)C=C(C)C)C3=C(C)[C@@H](OC(=O)[C@H](O)[C@@H](NC(=O)OC(C)(C)C)c4ccoc4)C[C@@](O)([C@@H](OC(=O)c4ccccc4)C12)C3(C)C` (stereo partly shown) [Compound 2499], for which the IC50 is less than 1 nM.

With `CC(=O)O[C@@]12CO[C@@H]1C[C@H](O)[C@@]1(C)C(=O)[C@H](OC(=O)C3CC3)C3=C(C)[C@@H](OC(=O)[C@H](O)[C@@H](NC(=O)c4ccccc4)C4CC4)C[C@@](O)([C@@H](OC(=O)c4ccccc4)C12)C3(C)C` (stereo partly shown) [Compound 0923], the IC50 was less than 1 nM.

As for `C/C=C/C(=O)O[C@H]1C(=O)[C@@]2(C)C([C@H](OC(=O)c3ccccc3)[C@]3(O)C[C@H](OC(=O)[C@H](O)[C@@H](NC(=O)OC(C)(C)C)c4ccoc4)C(C)=C1C3(C)C)[C@]1(OC(C)=O)CO[C@@H]1C[C@@H]2O` (stereo partly shown) [Compound 2380], the IC50 is less than 1 nM.

Regarding `CCC(=O)O[C@H]1C(=O)[C@@]2(C)C([C@H](OC(=O)c3ccccc3)[C@]3(O)C[C@H](OC(=O)[C@H](O)[C@@H](NC(=O)OC(C)C)c4ccco4)C(C)=C1C3(C)C)[C@]1(OC(C)=O)CO[C@@H]1C[C@@H]2O` (stereo partly shown) [Compound 3522], the IC50 is less than 1 nM.

For `CC(=O)O[C@@]12CO[C@@H]1C[C@H](O)[C@@]1(C)C(=O)[C@H](OC(=O)C3CC3)C3=C(C)[C@@H](OC(=O)[C@H](O)[C@@H](NC(=O)c4ccccc4)c4ccco4)C[C@@](O)([C@@H](OC(=O)c4ccccc4)C12)C3(C)C` (stereo partly shown) [Compound 0908], the IC50 is less than 1 nM.

`CC(=O)OC12COC1CC(O)C1(C)C(=O)C(OC(=O)c3ccco3)C3=C(C)C(OC(=O)C(O)C(NC(=O)OC(C)(C)C)c4ccncc4)CC(O)(C(OC(=O)c4ccccc4)C21)C3(C)C` (stereo not shown) [Compound 2132]: the IC50 was less than 1 nM.

Regarding `CC(=O)O[C@@]12CO[C@@H]1C[C@H](O)[C@@]1(C)C(=O)[C@H](OC(=O)C3CC3)C3=C(C)[C@@H](OC(=O)[C@H](O)[C@@H](NC(=O)c4ccccc4)c4ccoc4)C[C@@](O)([C@@H](OC(=O)c4ccccc4)C12)C3(C)C` (stereo partly shown) [Compound 2826], the IC50 is less than 1 nM.

Turning to `CCCC(=O)O[C@H]1C(=O)[C@@]2(C)C([C@H](OC(=O)c3ccccc3)[C@]3(O)C[C@H](OC(=O)[C@H](O)[C@@H](NC(=O)OC(C)(C)C)c4ccoc4)C(C)=C1C3(C)C)[C@]1(OC(C)=O)CO[C@@H]1C[C@@H]2O` (stereo partly shown) [Compound 0999], the IC50 is less than 1 nM.

Consider `CC(=O)OC12COC1CC(O)C1(C)C(=O)C(OC(=O)c3cccs3)C3=C(C)C(OC(=O)C(O)C(NC(=O)OC(C)(C)C)c4ccoc4)CC(O)(C(OC(=O)c4ccccc4)C21)C3(C)C` (stereo not shown) [Compound 1923], for which the IC50 is less than 1 nM.

With `CC(=O)O[C@@]12CO[C@@H]1C[C@H](O)[C@@]1(C)C(=O)[C@H](OC(=O)C=C(C)C)C3=C(C)[C@@H](OC(=O)[C@H](O)[C@H](C=C(C)C)NC(=O)OC(C)(C)C)C[C@@](O)([C@@H](OC(=O)c4ccccc4)C12)C3(C)C` (stereo partly shown) [Compound 2455], the IC50 is less than 10 nM.

Take `CCC(=O)O[C@H]1C(=O)[C@@]2(C)C([C@H](OC(=O)c3ccccc3)[C@]3(O)C[C@H](OC(=O)[C@H](O)[C@@H](NC(=O)c4ccccc4)C(C)C)C(C)=C1C3(C)C)[C@]1(OC(C)=O)CO[C@@H]1C[C@@H]2O` (stereo partly shown) [Compound 0719]: the IC50 is less than 10 nM.

As for `CC(=O)O[C@@]12CO[C@@H]1C[C@H](O)[C@@]1(C)C(=O)[C@H](OC(=O)C3CC3)C3=C(C)[C@@H](OC(=O)[C@H](O)[C@@H](NC(=O)c4ccccc4)c4ccsc4)C[C@@](O)([C@@H](OC(=O)c4ccccc4)C12)C3(C)C` (stereo partly shown) [Compound 2838], the IC50 is less than 1 nM.

For `CCCC(=O)O[C@H]1C(=O)[C@@]2(C)C([C@H](OC(=O)c3ccccc3)[C@]3(O)C[C@H](OC(=O)[C@H](O)[C@@H](NC(=O)c4cccnc4)c4cccs4)C(C)=C1C3(C)C)[C@]1(OC(C)=O)CO[C@@H]1C[C@@H]2O` (stereo partly shown) [Compound 4190], the IC50 was less than 10 nM.

`CCCC(=O)O[C@H]1C(=O)[C@@]2(C)C([C@H](OC(=O)c3ccccc3)[C@]3(O)C[C@H](OC(=O)[C@H](O)[C@H](C=C(C)C)NC(=O)OC(C)(C)C)C(C)=C1C3(C)C)[C@]1(OC(C)=O)CO[C@@H]1C[C@@H]2O` (stereo partly shown) [Compound 0947]: the IC50 is less than 1 nM.

As for `C/C=C/C(=O)O[C@H]1C(=O)[C@@]2(C)C([C@H](OC(=O)c3ccccc3)[C@]3(O)C[C@H](OC(=O)[C@H](O)[C@@H](NC(=O)OC(C)(C)C)c4ccc([N+](=O)[O-])cc4)C(C)=C1C3(C)C)[C@]1(OC(C)=O)CO[C@@H]1C[C@@H]2O` (stereo partly shown) [Compound 2439], the IC50 is less than 10 nM.

Consider `CCC(=O)O[C@H]1C(=O)[C@@]2(C)C([C@H](OC(=O)c3ccccc3)[C@]3(O)C[C@H](OC(=O)[C@H](O)[C@@H](NC(=O)OC(C)(C)C)c4ccc([N+](=O)[O-])cc4)C(C)=C1C3(C)C)[C@]1(OC(C)=O)CO[C@@H]1C[C@@H]2O` (stereo partly shown) [Compound 0602], for which the IC50 was less than 1 nM.

As for `CCCC(=O)O[C@H]1C(=O)[C@@]2(C)C([C@H](OC(=O)c3ccccc3)[C@]3(O)C[C@H](OC(=O)[C@H](O)[C@@H](NC(=O)OCC)c4ccco4)C(C)=C1C3(C)C)[C@]1(OC(C)=O)CO[C@@H]1C[C@@H]2O` (stereo partly shown) [Compound 3693], the IC50 was less than 1 nM.

For `CC(=O)OC12COC1CC(O)C1(C)C(=O)C(OC(=O)c3ccco3)C3=C(C)C(OC(=O)C(O)C(NC(=O)OC(C)(C)C)c4ccccc4)CC(O)(C(OC(=O)c4ccccc4)C21)C3(C)C` (stereo not shown) [Compound 2212], the IC50 is less than 10 nM.

With `CCC(=O)O[C@H]1C(=O)[C@@]2(C)C([C@H](OC(=O)c3ccccc3)[C@]3(O)C[C@H](OC(=O)[C@H](O)[C@@H](NC(=O)OC(C)(C)C)c4ccncc4)C(C)=C1C3(C)C)[C@]1(OC(C)=O)CO[C@@H]1C[C@@H]2O` (stereo partly shown) [Compound 0521], the IC50 is less than 1 nM.

With `CCCC(=O)OC1C(=O)C2(C)C(O)CC3OCC3(OC(C)=O)C2C(OC(=O)c2ccccc2)C2(O)CC(OC(=O)C(O)C(NC(=O)OC(C)(C)C)C3CC3)C(C)=C1C2(C)C` (stereo not shown) [Compound 1020], the IC50 was less than 1 nM.

Regarding `CC(=O)OC12COC1CC(O)C1(C)C(=O)C(OC(=O)c3cccs3)C3=C(C)C(OC(=O)C(O)C(C=C(C)C)NC(=O)OC(C)(C)C)CC(O)(C(OC(=O)c4ccccc4)C21)C3(C)C` (stereo not shown) [Compound 1879], the IC50 is less than 10 nM.

Turning to `C/C=C/C(=O)N[C@@H](c1ccco1)[C@@H](O)C(=O)O[C@H]1C[C@@]2(O)[C@@H](OC(=O)c3ccccc3)C3[C@](C)(C(=O)[C@H](OC(=O)CC)C(=C1C)C2(C)C)[C@@H](O)C[C@H]1OC[C@@]31OC(C)=O` (stereo partly shown) [Compound 3982], the IC50 is less than 1 nM.

Consider `CCC(=O)O[C@H]1C(=O)[C@@]2(C)C([C@H](OC(=O)c3ccccc3)[C@]3(O)C[C@H](OC(=O)[C@H](O)[C@@H](NC(=O)c4cccnc4)c4cccs4)C(C)=C1C3(C)C)[C@]1(OC(C)=O)CO[C@@H]1C[C@@H]2O` (stereo partly shown) [Compound 4121], for which the IC50 was less than 10 nM.

For `CC(=O)O[C@@]12CO[C@@H]1C[C@H](O)[C@@]1(C)C(=O)[C@H](OC(=O)C3CC3)C3=C(C)[C@@H](OC(=O)[C@H](O)[C@@H](NC(=O)OC(C)(C)C)C4CC4)C[C@@](O)([C@@H](OC(=O)c4ccccc4)C12)C3(C)C` (stereo partly shown) [Compound 0860], the IC50 is less than 1 nM.
